{"source": "BindingDB's records for doi:10.1016/0922-4106(95)90072-1", "about": "(Cocensys, 1995)", "key": {"[1]": {"biological_target": "Gamma-aminobutyric acid receptor subunit alpha-6 (Homo sapiens, UniProt Q16445)", "sequence (Q16445 whole entry)": "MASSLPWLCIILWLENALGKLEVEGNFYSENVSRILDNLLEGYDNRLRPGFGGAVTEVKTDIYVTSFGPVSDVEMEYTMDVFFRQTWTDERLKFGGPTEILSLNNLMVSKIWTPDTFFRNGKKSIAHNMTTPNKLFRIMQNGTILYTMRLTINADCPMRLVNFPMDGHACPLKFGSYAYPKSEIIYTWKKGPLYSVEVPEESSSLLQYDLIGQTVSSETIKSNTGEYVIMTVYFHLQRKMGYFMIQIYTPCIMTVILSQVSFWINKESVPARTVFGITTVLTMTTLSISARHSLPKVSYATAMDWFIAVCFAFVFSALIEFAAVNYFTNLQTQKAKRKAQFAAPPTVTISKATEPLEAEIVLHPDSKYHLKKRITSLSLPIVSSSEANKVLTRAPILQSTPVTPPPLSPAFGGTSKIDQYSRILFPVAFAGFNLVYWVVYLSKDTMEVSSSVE"}, "[2]": {"biological_target": "Gamma-aminobutyric acid receptor subunit alpha-4 (Homo sapiens, UniProt P48169)", "sequence (P48169 whole entry)": "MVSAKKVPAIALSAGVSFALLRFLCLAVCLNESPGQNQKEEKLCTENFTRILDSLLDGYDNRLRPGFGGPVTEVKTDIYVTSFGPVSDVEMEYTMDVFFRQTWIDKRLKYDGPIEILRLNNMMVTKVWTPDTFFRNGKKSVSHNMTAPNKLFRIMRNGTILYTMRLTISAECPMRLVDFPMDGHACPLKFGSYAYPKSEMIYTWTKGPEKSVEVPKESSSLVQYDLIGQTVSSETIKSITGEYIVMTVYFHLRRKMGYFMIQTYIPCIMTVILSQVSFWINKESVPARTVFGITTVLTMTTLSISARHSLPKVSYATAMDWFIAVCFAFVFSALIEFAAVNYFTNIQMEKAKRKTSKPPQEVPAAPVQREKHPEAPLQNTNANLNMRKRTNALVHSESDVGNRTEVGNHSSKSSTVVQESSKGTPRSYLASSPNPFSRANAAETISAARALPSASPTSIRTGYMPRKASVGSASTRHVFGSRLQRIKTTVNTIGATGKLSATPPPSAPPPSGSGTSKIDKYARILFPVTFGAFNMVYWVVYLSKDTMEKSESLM"}}, "data": [{"smiles": "CC(C)(C)OC(=O)c1ncn2c1C1CCCN1C(=O)c1c(Br)cccc1-2", "note": "(stereo not drawn) [8-Bromo-7-oxo-3b,4,5,6-tetrahydro-7H-2,6a,11b-triaza-benzo[g]cyclopenta[e]azulene-3-carboxylic acid tert-butyl ester]", "values": [{"measurement": "Ki", "setting": "[1]", "value": 54.9, "unit": "nM"}, {"measurement": "Ki", "setting": "[2]", "value": 53.5, "unit": "nM"}]}, {"smiles": "CCc1c(C(=O)OC)ncc2[nH]c3cc(OC)c(OC)cc3c12", "note": "[NSC_104999]", "values": [{"measurement": "Ki", "setting": "[1]", "value": 153, "unit": "nM"}, {"measurement": "Ki", "setting": "[2]", "value": 14.1, "unit": "nM"}]}, {"smiles": "COc1ccc(-n2[nH]c3c(cnc4ccccc43)c2=O)cc1", "note": "[2-(4-Methoxy-phenyl)-2,5-dihydro-pyrazolo[4,3-c]quinolin-3-one (CGS 9895)]", "values": [{"measurement": "Ki", "setting": "[1]", "value": 43.8, "unit": "nM"}, {"measurement": "Ki", "setting": "[2]", "value": 6.8, "unit": "nM"}]}, {"smiles": "CCOC(=O)c1ncn2c1CN(C)C(=O)c1cc(N=[N+]=[N-])ccc1-2", "note": "[RO-154513]", "values": [{"measurement": "Ki", "setting": "[1]", "value": 11.7, "unit": "nM"}]}, {"smiles": "CNC(=O)c1cc2c(cn1)[nH]c1ccccc12", "note": "[CAS_4375]", "values": [{"measurement": "Ki", "setting": "[1]", "value": 2510, "unit": "nM"}, {"measurement": "Ki", "setting": "[2]", "value": 300, "unit": "nM"}]}, {"smiles": "COC(=O)c1cc2c(cn1)[nH]c1ccccc12", "values": [{"measurement": "Ki", "setting": "[1]", "value": 3260, "unit": "nM"}, {"measurement": "Ki", "setting": "[2]", "value": 310, "unit": "nM"}]}, {"smiles": "O=c1c2cnc3ccccc3c2[nH]n1-c1ccc(Cl)cc1", "values": [{"measurement": "Ki", "setting": "[1]", "value": 285, "unit": "nM"}, {"measurement": "Ki", "setting": "[2]", "value": 35.6, "unit": "nM"}]}]}
